Experimental data taken from ChEMBL document CHEMBL1201862, “PubChem BioAssay data set” (2004).
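Briefly, cells in 96-well plates were exposed to five compound concentrations for 48 h, and endpoints were estimated by linear interpolation. Abbreviation: GI50, concentration required for 50% inhibition of growth.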 Active and inactive are the calls of the source. No stated cut-off is given here; in the data, active = GI50 up to about 1.1 µM and inactive = higher.

How the values were obtained:
Experiment in all cases: NCI tumour cell line growth inhibition, 48 h
ACHN = system: ACHN
HCC 2998 = system: HCC 2998
HL-60 = system: HL-60
IGROV-1 = system: IGROV-1
K562 = system: K562
KM12 = system: KM12
LOX IMVI = system: LOX IMVI
NCI-H23 = system: NCI-H23
NCI-H460 = system: NCI-H460
OVCAR-8 = system: OVCAR-8
SK-MEL-28 = system: SK-MEL-28
SNB-19 = system: SNB-19
SW-620 = system: SW-620
UACC-62 = system: UACC-62
Malme-3M = system: Malme-3M
A498 = system: A498

Structure (SMILES): Nc1nc(Cl)cc(NCCCCCCCCNc2cc(Cl)nc(N)n2)n1
- GI50 (ACHN): 0.221 µM (active)
- GI50 (HCC 2998): 65.6 µM (inactive)
- GI50 (HL-60): 1.46 µM (inactive)
- GI50 (IGROV-1): 23.7 µM (inactive)
- GI50 (K562): 2.2 µM (inactive)
- GI50 (KM12): 14.7 µM (inactive)
- GI50 (LOX IMVI): 3.82 µM (inactive)
- GI50 (NCI-H23): 1.22 µM (inactive)
- GI50 (NCI-H460): 31.3 µM (inactive)
- GI50 (OVCAR-8): 11.7 µM (inactive)
- GI50 (SK-MEL-28): 31.8 µM (inactive)
- GI50 (SNB-19): > 100 µM (inactive)
- GI50 (SW-620): 36.8 µM (inactive)
- GI50 (UACC-62): 1.36 µM (inactive)

Structure (SMILES): CC(CCCOC(c1ccccc1)(c1ccccc1)c1ccccc1)OC(=O)Nc1ccccc1 (configuration not stated)
- GI50 (ACHN): 13.6 µM (inactive)
- GI50 (HCC 2998): 14.1 µM (inactive)
- GI50 (HL-60): 11.6 µM (inactive)
- GI50 (IGROV-1): 16.4 µM (inactive)
- GI50 (K562): 11.3 µM (inactive)
- GI50 (KM12): 14 µM (inactive)
- GI50 (LOX IMVI): 12.7 µM (inactive)
- GI50 (Malme-3M): 15.8 µM (inactive)
- GI50 (NCI-H23): 9.84 µM (inactive)
- GI50 (NCI-H460): 11.7 µM (inactive)
- GI50 (OVCAR-8): 14 µM (inactive)
- GI50 (SK-MEL-28): 15.3 µM (inactive)
- GI50 (SW-620): 14.4 µM (inactive)
- GI50 (UACC-62): 12.8 µM (inactive)

Structure (SMILES): CCNC(=O)COc1ccc(Cl)c(C)c1
- GI50 (A498): > 100 µM (inactive)
- GI50 (ACHN): > 100 µM (inactive)
- GI50 (HCC 2998): > 100 µM (inactive)
- GI50 (HL-60): > 100 µM (inactive)
- GI50 (IGROV-1): > 100 µM (inactive)
- GI50 (K562): > 100 µM (inactive)
- GI50 (KM12): > 100 µM (inactive)
- GI50 (LOX IMVI): > 100 µM (inactive)
- GI50 (Malme-3M): > 100 µM (inactive)
- GI50 (NCI-H23): > 100 µM (inactive)
- GI50 (NCI-H460): > 100 µM (inactive)
- GI50 (SK-MEL-28): > 100 µM (inactive)
- GI50 (SNB-19): > 100 µM (inactive)
- GI50 (SW-620): > 100 µM (inactive)
- GI50 (UACC-62): > 100 µM (inactive)

Structure (SMILES): CCCCCCCCOCC(O)COC (configuration not stated)
- GI50 (A498): > 100 µM (inactive)
- GI50 (ACHN): > 100 µM (inactive)
- GI50 (HCC 2998): > 100 µM (inactive)
- GI50 (HL-60): > 100 µM (inactive)
- GI50 (IGROV-1): > 100 µM (inactive)
- GI50 (K562): 63.8 µM (inactive)
- GI50 (LOX IMVI): > 100 µM (inactive)
- GI50 (Malme-3M): > 100 µM (inactive)
- GI50 (NCI-H23): > 100 µM (inactive)
- GI50 (NCI-H460): > 100 µM (inactive)
- GI50 (OVCAR-8): > 100 µM (inactive)
- GI50 (SK-MEL-28): > 100 µM (inactive)
- GI50 (SNB-19): > 100 µM (inactive)
- GI50 (SW-620): > 100 µM (inactive)
- GI50 (UACC-62): > 100 µM (inactive)

Structure (SMILES): COc1cc2cnc3c4cc(OC(C)C)c(OC)cc4ccc3c2cc1OC
- GI50 (A498): > 100 µM (inactive)
- GI50 (ACHN): > 100 µM (inactive)
- GI50 (HCC 2998): > 100 µM (inactive)
- GI50 (IGROV-1): > 100 µM (inactive)
- GI50 (K562): > 100 µM (inactive)
- GI50 (KM12): > 100 µM (inactive)
- GI50 (Malme-3M): > 100 µM (inactive)
- GI50 (NCI-H23): > 100 µM (inactive)
- GI50 (NCI-H460): > 100 µM (inactive)
- GI50 (OVCAR-8): > 100 µM (inactive)
- GI50 (SK-MEL-28): > 100 µM (inactive)
- GI50 (SNB-19): > 100 µM (inactive)
- GI50 (SW-620): > 100 µM (inactive)
- GI50 (UACC-62): > 100 µM (inactive)

Structure (SMILES): O=C(/C(=C/c1ccc(Cl)cc1)c1ccccc1)c1ccccc1
- GI50 (A498): 23.6 µM (inactive)
- GI50 (ACHN): 19.7 µM (inactive)
- GI50 (HCC 2998): 16.9 µM (inactive)
- GI50 (HL-60): 19.9 µM (inactive)
- GI50 (IGROV-1): 18.7 µM (inactive)
- GI50 (K562): 27.4 µM (inactive)
- GI50 (KM12): 16.9 µM (inactive)
- GI50 (LOX IMVI): 15.4 µM (inactive)
- GI50 (Malme-3M): 17 µM (inactive)
- GI50 (NCI-H23): 17.5 µM (inactive)
- GI50 (NCI-H460): 17.7 µM (inactive)
- GI50 (OVCAR-8): 20.3 µM (inactive)
- GI50 (SK-MEL-28): 16.9 µM (inactive)
- GI50 (SW-620): 17.4 µM (inactive)
- GI50 (UACC-62): 15.6 µM (inactive)

Structure (SMILES): O=C(Cc1ccccc1)N/N=C(/c1nc2ccc([N+](=O)[O-])cc2nc1O)C(O)c1ccccc1Cl (configuration not stated)
- GI50 (A498): > 100 µM (inactive)
- GI50 (ACHN): 56.6 µM (inactive)
- GI50 (HCC 2998): 54 µM (inactive)
- GI50 (HL-60): > 100 µM (inactive)
- GI50 (IGROV-1): > 100 µM (inactive)
- GI50 (K562): > 100 µM (inactive)
- GI50 (KM12): 79.3 µM (inactive)
- GI50 (LOX IMVI): > 100 µM (inactive)
- GI50 (Malme-3M): > 100 µM (inactive)
- GI50 (NCI-H23): > 100 µM (inactive)
- GI50 (NCI-H460): > 100 µM (inactive)
- GI50 (OVCAR-8): > 100 µM (inactive)
- GI50 (SK-MEL-28): > 100 µM (inactive)
- GI50 (SW-620): 89.9 µM (inactive)
- GI50 (UACC-62): > 100 µM (inactive)

Structure (SMILES): N#CC1CC2(C1)OCCS2 (configuration not stated)
- GI50 (A498): > 100 µM (inactive)
- GI50 (ACHN): > 100 µM (inactive)
- GI50 (HCC 2998): > 100 µM (inactive)
- GI50 (HL-60): > 100 µM (inactive)
- GI50 (IGROV-1): > 100 µM (inactive)
- GI50 (K562): > 100 µM (inactive)
- GI50 (KM12): > 100 µM (inactive)
- GI50 (LOX IMVI): > 100 µM (inactive)
- GI50 (NCI-H23): > 100 µM (inactive)
- GI50 (NCI-H460): > 100 µM (inactive)
- GI50 (OVCAR-8): > 100 µM (inactive)
- GI50 (SK-MEL-28): > 100 µM (inactive)
- GI50 (SNB-19): > 100 µM (inactive)
- GI50 (SW-620): > 100 µM (inactive)
- GI50 (UACC-62): > 100 µM (inactive)

Structure (SMILES): C/C(CN1C(=O)c2ccccc2C1=O)=N\NS(=O)(=O)c1cccc([N+](=O)[O-])c1
- GI50 (A498): > 100 µM (inactive)
- GI50 (ACHN): > 100 µM (inactive)
- GI50 (HCC 2998): > 100 µM (inactive)
- GI50 (HL-60): > 100 µM (inactive)
- GI50 (IGROV-1): > 100 µM (inactive)
- GI50 (K562): > 100 µM (inactive)
- GI50 (KM12): > 100 µM (inactive)
- GI50 (Malme-3M): > 100 µM (inactive)
- GI50 (NCI-H23): > 100 µM (inactive)
- GI50 (NCI-H460): > 100 µM (inactive)
- GI50 (OVCAR-8): > 100 µM (inactive)
- GI50 (SK-MEL-28): > 100 µM (inactive)
- GI50 (SNB-19): > 100 µM (inactive)
- GI50 (SW-620): > 100 µM (inactive)
- GI50 (UACC-62): > 100 µM (inactive)
